Measurements: patent US8378114B2, “N-2-(hetero)arylethylcarboxamide derivative, and pest-controlling agent comprising the same” (Nihon Nohyaku Co., Ltd., priority 2006, dated 2013)

system: causal fungus of apple tree scab (Venturia inaequalis); assay: Test on the controlling efficacy against apple tree scab; assay type: in vivo; settings: apple seedling, foliar application, 4-fold concentration 200 ppm, 14 days after inoculation
Text: A seedling of an apple tree (the variety: Ohrin) grown in a pot was subjected to foliar application with a diluted emulsion of the emulsifiable concentrate of the compound of the present invention prepared in accordance with Formulation Example 1, which diluted emulsion was produced by diluting the concentrate with water to the specifically determined volume. On the following day after the application, the seedling was inoculated by spraying with a spore suspension of the causal fungus of apple tree scab (Venturia inaequalis) as obtained by culture on the PSA medium and maintained at 20° C. under humid conditions. Fourteen days after the inoculation, the protective value (%) was determined in accordance with the equation (1), and the controlling efficacy was assessed according the below-described criteria of judgment. [formula]

Compound | controlling efficacy, criteria of judgment (protective value)
O=C(NCCc1cccc(C(F)(F)F)c1)c1c(Cl)cccc1Cl [comparison compound A, 2,6-dichloro-N-[2-{3-(trifluoromethyl)phenyl}ethyl]benzamide] | 0 (Less than 9% in protective value)

system: southern root-knot nematode (Meloidogyne incognita); assay: Test on the controlling efficacy against southern root-knot nematode; assay type: in vivo; design: key: A: No root knot.; B: Apparently smaller number of root knots than in non-treated section were present.; C: Root knots in the number equivalent to or higher than in non-treated section were present; settings: melon nursery plant, plant foot irrigation, 500 ppm, 8 days after inoculation
Experimental: An emulsion prepared by diluting an emulsifiable concentrate of the compound of the present invention, which was prepared in accordance with Formulation Example 1, to 500 ppm was irrigated to the plant foot of a pot-cultivated nursery plant raised from the seed of melon. One day after the irrigation, an aqueous suspension (about 500 nematodes/ml) of southern root-knot nematode was inoculated (soil irrigation) to a treated section and a non-treated section, and the pot was placed in a greenhouse at 25° C. Eight days after the inoculation, the root was washed with water, the number of root knots was counted, and the effect was assessed according to the following criteria of judgment. • Criteria of Judgment • A: No root knot. • B: Apparently smaller number of root knots than in non-treated section were present. • C: Root knots in the number equivalent to or higher than in non-treated section were present.

Compound | effect on number of root knots, criteria of judgment
O=C(NCCc1ccc(Cl)cc1Cl)c1ccccc1C(F)(F)F [1-16] | B
O=C(NCC1(c2ccc(Cl)cc2Cl)CC1)c1ccccc1C(F)(F)F [1-34] | B
O=C(NCC1(c2ccc(Cl)cc2Cl)CC1)c1nccnc1Cl [3′-43] | B
CC(Cc1ccc(Cl)cc1Cl)NC(=O)c1nccnc1Cl (stereo not drawn) [3′-44] | B
Cc1nccnc1C(=O)NCCc1ccc(-c2ccc(OC(F)(F)F)cc2)cc1 [3″-48] | B
